Measured values taken from publication PMC5344293, “A phase 1 dose-escalation and expansion study of binimetinib (MEK162), a potent and selective oral MEK1/2 inhibitor” (British Journal of Cancer, 2017).

Assay: Phase 1 safety: adverse events
Assay type: in vivo, human
Protocol: All patients underwent a complete medical history and physical examination, assessment of ECOG performance status and vital signs, and laboratory analysis of haematology, coagulation, clinical chemistry, and urine. Three serial resting and supine 12-lead electrocardiograms were conducted over 5–10 min and cardiac ejection fraction was assessed by echocardiogram or MUGA. In addition, a complete ophthalmologic examination (including visual acuity; fundoscopy and tonometry; optical coherence tomography; and slit-lamp, lens, vitreous, and fluorescence dye examinations) was performed on each patient. These assessments were repeated throughout study participation and/or as clinically indicated. Adverse events were reviewed on an ongoing basis.
Adverse events and serious AEs (SAEs) were coded by preferred term (PT) and system organ class using the Medical Dictionary for Regulatory Activities version 12.0. The severity of AEs was assessed by investigators using the National Cancer Institute Common Terminology Criteria for Adverse Events version 3.0. Two AEs of special interest were captured under the composite terms of ‘combined rash' and ‘combined ocular events.' The ‘combined rash' term included the PTs of dermatitis acneiform, acne, skin exfoliation, and any term containing ‘rash'. The ‘combined ocular events' term included the PTs of retinal deposits, retinopathy, papilloedema, chorioretinopathy, macular oedema, retinal detachment, and retinal disorder.
All patients who received ⩾1 dose of binimetinib were included in the safety analysis. Patients in the safety analysis who had ⩾1 measurable lesion at baseline and at least 1 post-baseline disease assessment were evaluable for efficacy. Kaplan–Meier estimates of progression-free survival (PFS) and overall survival (OS) were performed for patients in the expansion phase ([Kaplan and Meier, 1958]) using SAS Version 9.2 (SAS Institute Inc., Cary, NC, USA).

[1] = AEs regardless of causality, N=93

## Cn1cnc2c(F)c(Nc3ccc(Br)cc3F)c(C(=O)NOCCO)cc21 [binimetinib]
30 mg BID (n=4), Gr 1/2
  Abdominal pain: 1 (25) n (%)
  Anaemia: 1 (25) n (%)
  Anorexia: 1 (25) n (%)
  Combined ocular events: 0 (0) n (%)
  Combined rash: 4 (100) n (%)
  Constipation: 2 (50) n (%)
  Diarrhoea: 4 (100) n (%)
  Dizziness: 0 (0) n (%)
  Dyspnoea: 2 (50) n (%)
  Fatigue: 2 (50) n (%)
  Nausea: 3 (75) n (%)
  Peripheral oedema: 0 (0) n (%)
  Pyrexia: 2 (50) n (%)
  Vomiting: 3 (75) n (%)
30 mg BID (n=4), Gr 3/4
  Abdominal pain: 0 (0) n (%)
  Anaemia: 0 (0) n (%)
  Anorexia: 0 (0) n (%)
  Combined ocular events: 0 (0) n (%)
  Combined rash: 0 (0) n (%)
  Constipation: 0 (0) n (%)
  Diarrhoea: 0 (0) n (%)
  Dizziness: 0 (0) n (%)
  Dyspnoea: 0 (0) n (%)
  Fatigue: 0 (0) n (%)
  Nausea: 0 (0) n (%)
  Peripheral oedema: 0 (0) n (%)
  Pyrexia: 0 (0) n (%)
  Vomiting: 0 (0) n (%)
30 mg BID dose group
  Incidence of ocular events: 0%
  Patients reporting SAEs: 50%
45 mg BID (n=44), Gr 1/2
  Abdominal pain: 7 (16) n (%)
  Anaemia: 5 (11) n (%)
  Anorexia: 8 (18) n (%)
  Combined ocular events: 5 (11) n (%)
  Combined rash: 33 (75) n (%)
  Constipation: 6 (14) n (%)
  Diarrhoea: 17 (39) n (%)
  Dizziness: 5 (11) n (%)
  Dyspnoea: 5 (11) n (%)
  Fatigue: 18 (41) n (%)
  Nausea: 27 (61) n (%)
  Peripheral oedema: 20 (45) n (%)
  Pyrexia: 7 (16) n (%)
  Vomiting: 23 (52) n (%)
45 mg BID (n=44), Gr 3/4
  Abdominal pain: 1 (2) n (%)
  Anaemia: 3 (7) n (%)
  Anorexia: 0 (0) n (%)
  Combined ocular events: 0 (0) n (%)
  Combined rash: 1 (2) n (%)
  Constipation: 0 (0) n (%)
  Diarrhoea: 0 (0) n (%)
  Dizziness: 0 (0) n (%)
  Dyspnoea: 2 (5) n (%)
  Fatigue: 2 (5) n (%)
  Nausea: 0 (0) n (%)
  Peripheral oedema: 0 (0) n (%)
  Pyrexia: 0 (0) n (%)
  Vomiting: 0 (0) n (%)
45 mg BID dose group
  AEs resulting in treatment discontinuation, patients: 16%
  AEs that resulted in dose reduction, patients: 16%
  Incidence of combined rash: 77%
  Incidence of diarrhoea: 39%
  Incidence of nausea: 61%
  Incidence of ocular events: 11%
  Incidence of peripheral oedema: 45%
  Incidence of vomiting: 52%
  Median time to onset of combined rash: 8 days
  Patients reporting SAEs: 20%
60 mg BID (n=41), Gr 1/2
  Abdominal pain: 7 (17) n (%)
  Anaemia: 5 (12) n (%)
  Anorexia: 8 (20) n (%)
  Combined ocular events: 11 (27) n (%)
  Combined rash: 35 (85) n (%)
  Constipation: 8 (20) n (%)
  Diarrhoea: 25 (61) n (%)
  Dizziness: 9 (22) n (%)
  Dyspnoea: 6 (15) n (%)
  Fatigue: 16 (39) n (%)
  Nausea: 21 (51) n (%)
  Peripheral oedema: 21 (51) n (%)
  Pyrexia: 7 (17) n (%)
  Vomiting: 20 (49) n (%)
60 mg BID (n=41), Gr 3/4
  Abdominal pain: 3 (7) n (%)
  Anaemia: 10 (24) n (%)
  Anorexia: 0 (0) n (%)
  Combined ocular events: 0 (0) n (%)
  Combined rash: 1 (2) n (%)
  Constipation: 2 (5) n (%)
  Diarrhoea: 0 (0) n (%)
  Dizziness: 0 (0) n (%)
  Dyspnoea: 1 (2) n (%)
  Fatigue: 1 (2) n (%)
  Nausea: 0 (0) n (%)
  Peripheral oedema: 0 (0) n (%)
  Pyrexia: 1 (2) n (%)
  Vomiting: 0 (0) n (%)
60 mg BID dose group
  AEs resulting in treatment discontinuation, patients: 15%
  AEs that resulted in dose reduction, patients: 49%
  Incidence of combined rash: 88%
  Incidence of diarrhoea: 61%
  Incidence of nausea: 51%
  Incidence of ocular events: 27%
  Incidence of peripheral oedema: 51%
  Incidence of vomiting: 49%
  Median time to onset of combined rash: 10 days
  Patients reporting SAEs: 41%
80 mg BID (n=4), Gr 1/2
  Abdominal pain: 1 (25) n (%)
  Anaemia: 0 (0) n (%)
  Anorexia: 1 (25) n (%)
  Combined ocular events: 1 (25) n (%)
  Combined rash: 0 (0) n (%)
  Constipation: 0 (0) n (%)
  Diarrhoea: 1 (25) n (%)
  Dizziness: 0 (0) n (%)
  Dyspnoea: 1 (25) n (%)
  Fatigue: 1 (25) n (%)
  Nausea: 1 (25) n (%)
  Peripheral oedema: 2 (50) n (%)
  Pyrexia: 0 (0) n (%)
  Vomiting: 2 (50) n (%)
80 mg BID (n=4), Gr 3/4
  Abdominal pain: 0 (0) n (%)
  Anaemia: 0 (0) n (%)
  Anorexia: 0 (0) n (%)
  Combined ocular events: 1 (25) n (%)
  Combined rash: 1 (25) n (%)
  Constipation: 0 (0) n (%)
  Diarrhoea: 0 (0) n (%)
  Dizziness: 0 (0) n (%)
  Dyspnoea: 0 (0) n (%)
  Fatigue: 0 (0) n (%)
  Nausea: 0 (0) n (%)
  Peripheral oedema: 0 (0) n (%)
  Pyrexia: 0 (0) n (%)
  Vomiting: 0 (0) n (%)
80 mg BID dose group
  AEs resulting in treatment discontinuation, patients: 25%
  AEs that resulted in dose reduction, patients: 75%
  Incidence of ocular events: 50%
  Incidence of peripheral oedema: 50%
18 patients with ocular events, range, 2–168 days
  Median time to onset of ocular events: 17 days
[1]
  Patients who experienced grade 2 events: 41%
  Patients who experienced grade 3 events: 49%
N=93
  Grade 3 abdominal pain: 4%
  Grade 3 anaemia: 11%
  Grade 3 dehydration: 4%
  Grade 4 AEs, patients: 6%
  Grade 4 anaemia: 3%
  Grade 5 events: no grade 5 events
Total (N=93), all grades
  Abdominal pain: 20 (22) n (%)
  Anaemia: 24 (26) n (%)
  Anorexia: 18 (19) n (%)
  Combined ocular events: 18 (19) n (%)
  Combined rash: 75 (81) n (%)
  Constipation: 18 (19) n (%)
  Diarrhoea: 47 (51) n (%)
  Dizziness: 14 (15) n (%)
  Dyspnoea: 17 (18) n (%)
  Fatigue: 40 (43) n (%)
  Nausea: 52 (56) n (%)
  Peripheral oedema: 43 (46) n (%)
  Pyrexia: 17 (18) n (%)
  Vomiting: 48 (52) n (%)
All dose levels, all grades
  Diarrhoea, patients: 51%
  Fatigue, patients: 43%
  Nausea, patients: 56%
  Ocular events (combined), patients: 19%
  Peripheral oedema, patients: 46%
  Rash (combined rash and related skin disorders), patients: 81%
  Vomiting, patients: 52%
All patients
  AEs of increased blood CK, patients: 13%
  AEs of increased blood CK-MB, patients: 1%
  Combined rash grade 1, patients: 44%
  Combined rash grade 2, patients: 33%
  Discontinuation due to combined rash: 2%
  Discontinuation due to fatigue: 3%
  Discontinuation due to nausea: 3%
  Discontinuation due to small intestinal obstruction: 2%
  Dose modification for AEs of increased blood CK, patients: 4%
  Dose reduction due to chorioretinopathy: 9%
  Dose reduction due to combined rash: 3%
  Dose reduction due to diarrhoea: 2%
  Dose reduction due to fatigue: 2%
  Dose reduction due to increased CK: 2%
  Dose reduction due to macular oedema: 2%
  Dose reduction due to myodesopsia: 2%
  Dose reduction due to photopsia: 3%
  Dose reduction due to retinal detachment: 3%
  Dose reduction due to retinopathy: 2%
  Dose reduction due to visual impairment: 2%
  Dose reduction due to vomiting: 2%
  Grade 3 ocular event of chorioretinopathy, patients: 1%
  Maximum reported SAE severity grade 2, patients: 5%
  Maximum reported SAE severity grade 3, patients: 22%
  Maximum reported SAE severity grade 4, patients: 3%
  Maximum reported severity of nausea, vomiting, or diarrhoea: either grade 1 or grade 2
  Ocular events grade 1, patients: 5%
  Ocular events grade 2, patients: 13%
  Peripheral oedema maximum severity grade 1, patients: 32%
  Peripheral oedema maximum severity grade 2, patients: 14%
  Permanent discontinuation for peripheral oedema, patients: 1%
  SAE anaemia: 4%
  SAE bacteraemia: 2%
  SAE dehydration: 2%
  SAE gastrointestinal haemorrhage: 2%
  SAE pneumonia: 2%
  SAE small intestinal obstruction: 2%
  SAE ulcer haemorrhage: 2%
All patients, led to permanent discontinuation
  Grade 1 venous stasis retinopathy, patients: 1%
All patients, required dose modification or discontinuation
  Combined rash grade 3, patients: 3%
Cause of death disease progression in all
  Patients who died during the study or within 30 days of the last dose: 22%
During the study or within 30 days of the last dose, all patients
  Patients reporting SAEs: 30%
Laboratory values, all patients
  Increased CK, patients: 69%
Of patients with ocular events
  Ocular events recovering/resolving: 17%
  Ocular events with complete resolution: 78%
  Ocular events with stable retinal findings at treatment discontinuation: 6%
Shifted by ⩾3 grades from baseline and/or grade 4
  Clinically significant CK values, patients: 10%
